PMC2903443 (Journal of medicinal chemistry, 2010)
Like-named read-outs stand apart in the source and are kept apart here.

How the values were obtained:
mtIMPDH [1] = biological target: T1, mtIMPDH (Mycobacterium tuberculosis, UniProt P9WKI7); assay: biochemical; format: biochemical
hIMPDH1 = hIMPDH1 (Homo sapiens, UniProt P20839); assay: IMPDH inhibition assay; format: biochemical; conditions: hIMPDHs, isoform not specified; relative to compound 6
mtIMPDH [2] = biological target: T1, mtIMPDH; format: biochemical
mtIMPDH [3] = biological target: T1, mtIMPDH; assay: biochemical
human-type 1 IMPDH = conditions: cited from earlier work
human-type 2 IMPDH = conditions: cited from earlier work

T1 sequence (P9WKI7 whole entry, looked up, canonical isoform): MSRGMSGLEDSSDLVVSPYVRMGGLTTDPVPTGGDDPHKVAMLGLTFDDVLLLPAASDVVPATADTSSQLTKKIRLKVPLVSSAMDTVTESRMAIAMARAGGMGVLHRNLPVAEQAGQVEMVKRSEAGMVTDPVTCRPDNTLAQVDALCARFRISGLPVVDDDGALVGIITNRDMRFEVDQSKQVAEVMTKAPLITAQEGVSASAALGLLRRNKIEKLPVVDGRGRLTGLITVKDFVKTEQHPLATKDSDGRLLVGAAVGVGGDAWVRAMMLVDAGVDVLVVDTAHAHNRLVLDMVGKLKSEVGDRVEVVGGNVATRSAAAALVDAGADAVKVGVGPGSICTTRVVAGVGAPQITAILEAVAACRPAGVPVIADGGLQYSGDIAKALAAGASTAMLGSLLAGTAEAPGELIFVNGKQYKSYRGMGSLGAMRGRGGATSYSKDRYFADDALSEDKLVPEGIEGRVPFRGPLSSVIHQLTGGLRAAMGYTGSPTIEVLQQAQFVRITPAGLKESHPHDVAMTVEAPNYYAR
hIMPDH1, sequence (P20839 whole entry, canonical isoform): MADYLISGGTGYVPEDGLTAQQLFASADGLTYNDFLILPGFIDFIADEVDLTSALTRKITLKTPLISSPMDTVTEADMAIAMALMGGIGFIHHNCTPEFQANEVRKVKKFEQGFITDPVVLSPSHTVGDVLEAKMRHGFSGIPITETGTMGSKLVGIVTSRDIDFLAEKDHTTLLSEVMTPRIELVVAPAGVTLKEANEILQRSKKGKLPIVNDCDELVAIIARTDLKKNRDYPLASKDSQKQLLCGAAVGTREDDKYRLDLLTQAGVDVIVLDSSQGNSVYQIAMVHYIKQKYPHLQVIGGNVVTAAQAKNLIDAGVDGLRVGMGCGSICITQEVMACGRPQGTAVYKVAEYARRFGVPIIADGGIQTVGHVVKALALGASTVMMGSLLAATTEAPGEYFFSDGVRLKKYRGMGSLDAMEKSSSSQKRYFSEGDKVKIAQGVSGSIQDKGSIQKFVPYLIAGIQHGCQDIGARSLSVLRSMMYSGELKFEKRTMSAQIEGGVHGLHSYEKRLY

Q: Which results are given for `COc1c(C)c2c(c(O)c1C/C=C(\C)CCC(=O)O)C(=O)OC2` [Compound 1, Mycophenolic acid]?
A: Hill-slope (mtIMPDH [1]; fit of Ki^app against mtIMPDH): 1.5; Ki^app value against mtIMPDH with detergent (mtIMPDH [1]; reaction buffer containing 0.1% Trition X-100, compared with buffer without): not affected

Q: For `COc1c(C)c2c(c(O)c1CCOP(=O)(O)CP(=O)(O)OC[C@H]1O[C@@H](n3cnc4c(N)nc(-c5ccccc5)nc43)[C@H](O)[C@@H]1O)C(=O)OC2` [Compound 3b], which Ki (mtIMPDH [1]) is on record?
A: The Ki was greater than 100 µM.

Q: Which Ki (mtIMPDH [1]) does the source give for `COc1c(C)c2c(c(O)c1C/C=C(\C)COP(=O)(O)CP(=O)(O)OC[C@H]1O[C@@H](n3cnc4c(N)ncnc43)[C@H](O)[C@@H]1O)C(=O)OC2` [Compound 4] here?
A: Its Ki is greater than 100 µM.

Q: For `COc1c(C)c2c(c(O)c1CCNS(=O)(=O)CS(=O)(=O)NC[C@H]1O[C@@H](n3cnc4c(N)nc(-c5ccccc5)nc43)[C@H](O)[C@@H]1O)C(=O)OC2` [Compound 5b], which Ki (mtIMPDH [1]) is on record?
A: The Ki was greater than 100 µM.

Q: Which Ki (mtIMPDH [1]) does the source give for `C#Cc1nc(N)c2ncn([C@@H]3O[C@H](CNS(=O)(=O)CS(=O)(=O)NCCc4c(O)c5c(c(C)c4OC)COC5=O)[C@@H](O)[C@H]3O)c2n1` [Compound 5c] here?
A: Its Ki is greater than 100 µM.

Q: With `CCc1nc(N)c2ncn([C@@H]3O[C@H](CNS(=O)(=O)CS(=O)(=O)NCCc4c(O)c5c(c(C)c4OC)COC5=O)[C@@H](O)[C@H]3O)c2n1` [Compound 5d] as the compound, how does the Ki (mtIMPDH [1]) read?
A: The Ki was greater than 100 µM.

Q: With `COc1c(C)c2c(c(O)c1CCNCc1cn(C[C@H]3O[C@@H](n4cnc5c(N)ncnc54)[C@H](O)[C@@H]3O)nn1)C(=O)OC2` [Compound 6, 6-(2-(((1-(5′-Deoxy-adenosin-5′-yl)-1H-1,2,3-triazol-4-yl)methyl)amino)ethyl)-7-hydroxy-5-methoxy-4-methylisobenzofuran-1(3H)-one] as the compound, how does the Ki (mtIMPDH [1]) read?
A: Its Ki is greater than 100 µM.

Q: With `COc1c(C)c2c(c(O)c1CCn1cc(COC[C@H]3O[C@@H](n4cnc5c(N)ncnc54)[C@H](O)[C@@H]3O)nn1)C(=O)OC2` [Compound 8, 6-(2-(4-(Adenosin-5′-yl)methyl-1H-1,2,3-triazol-1-yl)ethyl)-7-hydroxy-5-methoxy-4-methylisobenzofuran-1(3H)-one] as the compound, how does the “fold more potent than compound 6” value (hIMPDH1) read?
A: The value was 10 fold.

Q: And the Ki (mtIMPDH [1])?
A: The Ki was greater than 100 µM.

Q: With `COc1c(C)c2c(c(O)c1C/C=C(\C)Cn1cc(COC[C@H]3O[C@@H](n4cnc5c(N)ncnc54)[C@H](O)[C@@H]3O)nn1)C(=O)OC2` [Compound 9, 6-((E)-4-(4-(Adenosin-5′-yl)methyl-1H-1,2,3-triazol-1-yl)-3-methylbut-2-en-1-yl)-7-hydroxy-5-methoxy-4-methylisobenzofuran-1(3H)-one] as the compound, how does the “activity against mtIMPDH (in words)” value (mtIMPDH [1]) read?
A: Its value is “significant inhibition”.

Q: And the “uncompetitive Kiu vs. IMP” value (mtIMPDH [2]; IMP varied 1.4 μM to 1 mM, NAD fixed 0.5 mM, mtIMPDH […])?
A: Its value is 2.2 ± 0.1 µM.

Q: What about the “uncompetitive Kiu vs. NAD” value (mtIMPDH [2]; NAD varied 94 μM to 3 mM, IMP fixed 100 μM, mtIMPDH […]) of the same compound?
A: The value was 1.5 ± 0.1 µM.

Q: What about the mode of inhibition (mtIMPDH [2]; with respect to both NAD and IMP) of the same compound?
A: The mode of inhibition was “uncompetitive”.

Q: Which Ki (mtIMPDH [3]) does the source give for `NC(=O)c1ccc[n+]([C@@H]2O[C@H](COP(=O)([O-])OP(=O)(O)OC[C@H]3O[C@@H](n4cnc5c(N)ncnc54)[C@H](O)[C@@H]3O)[C@@H](O)[C@H]2O)c1` [NAD, nicotinamide adenine dinucleotide] here?
A: Its Ki is 5000 ± 600 µM.

Q: And the Km (human-type 1 IMPDH; read-out: KM (NAD), ref [28])?
A: Its Km is 70 ± 10 µM.

Q: And the Ki (human-type 1 IMPDH; read-out: Ki (NAD), ref [28])?
A: The Ki was 2000 ± 600 µM.

Q: And the Km (human-type 2 IMPDH; read-out: KM (NAD), ref [27])?
A: Its Km is 6 ± 1 µM.

Q: And the Ki (human-type 2 IMPDH; read-out: Ki (NAD), ref [27])?
A: Its Ki is 590 ± 20 µM.
